The record followed here is US20090221599A1, “PHTHALAZINONE PYRAZOLE DERIVATIVES, THEIR MANUFACTURE AND USE AS PHARMACEUTICAL AGENTS” (priority 2006, published 2009).

pIC50: −log10 of the molar value.

The pIC50 is −log10 of the IC50, conventionally taken in molar units.

The subject of the first assay is HCT 116 cells. Kind of assay: CellTiter-Glo assay in HCT 116 cells. In kind it is cell-based. Conditions: HCT 116 human colon carcinoma cells, 5 days, CellTiter-Glo cell viability. As for the experimental part:
The CellTiter-Glo™ Luminescent Cell Viability Assay (Promega) is a homogeneous method of determining the number of viable cells in culture based on quantitation of the ATP present, which signals the presence of metabolically active cells.
HCT 116 cells (human colon carcinoma, ATCC-No. CC1-247) were cultivated in RPMI 1640 medium with GlutaMAX™ I (Invitrogen, Cat-No. 61870-010), 2.5% Fetal Calf Serum (FCS, Sigma Cat-No. F4135 (FBS)); 100 Units/ml penicillin/100 μg/ml streptomycin (=Pen/Strep from Invitrogen Cat. No. 15140). For the assay the cells were seeded in 384 well plates, 1000 cells per well, in the same medium. The next day the test compounds were added in various concentrations ranging from 30 μM to 0.0015 μM (10 concentrations, 1:3 diluted). After 5 days the CellTiter-Glo™ assay was done according to the instructions of the manufacturer (CellTiter-Glo™ Luminescent Cell Viability Assay, from Promega). In brief: the cell-plate was equilibrated to room temperature for approximately 30 minutes and than the CellTiter-Glo™ reagent was added. The contents were carefully mixed for 15 minutes to induce cell lysis. After 45 minutes the luminescent signal was measured in Victor 2, (scanning multiwell spectrophotometer, Wallac).
1st. day: • Medium: RPMI 1640 with GlutaMAX™ I (Invitrogen, Cat-No. 61870), 5% FCS (Sigma Cat.-No. F4135), Pen/Strep (Invitrogen, Cat No. 15140). • HCT116 (ATCC-No. CC1-247): 1000 cells in 60 μl per well of 384 well plate (Greiner 781098, μClear-plate white) • After seeding incubate plates 24 h at 37° C., 5% CO2 2nd. day: Induction (Treatment with compounds, 10 concentrations):
In order to achieve a final concentration of 30 μM as highest concentration 3.5 μl of 10 mM compound stock solution were added directly to 163 μl media. Then step e) of the dilution procedure described below, was followed.
In order to achieve the second highest to the lowest concentrations, a serial dilution with dilution steps of 1:3 was followed according to the procedure (a-d) as described here below: • a) for the second highest concentration add 10 μl of 10 mM stock solution of compound to 20 μl dimethylsulfoxide (DMSO) • b) dilute 8× 1:3 (always 10 μl to 20 μl DMSO) in this DMSO dilution row (results in 9 wells with concentrations from 3333.3 μM to 0.51 μM) • c) dilute each concentration 1:47.6 (3.5 μl compound dilution to 163 μl media) • d) add 10 μl of every concentration to 60 μl media in the cell plate resulting in final concentration of DMSO: 0.3% in every well and resulting in 10 final concentration of compounds ranging from 30 μM to 0.0015 μM. • Each compound is tested in triplicate. • Incubate 120 h (5 days) at 37° C., 5% CO2
• Add 30 μl CellTiter-Glo™ Reagent (prepared from CellTiter-Glo™ Buffer and CellTiter-Glo™ Substrate (lyophilized) purchased from Promega) per well, • shake 15 minutes at room temperature • incubate further 45 minutes at room temperature without shaking
• Victor 2 scanning multiwell spectrophotometer (Wallac), Luminescence mode (0.5 sec/read, 477 nm) • Determine IC50 using a non-linear curve fit (XLfit software (ID Business Solution Ltd., Guilford, Surrey, UK))
(Cellular ATP, detected with luciferase, serves as a proxy for viable cell number.)
Take `CSCCN(C)c1ccc2c(Nc3cc(C)[nH]n3)nn(C(C)C)c(=O)c2c1` [Example B-1, 2-Isopropyl-7-[methyl-(2-methylsulfanyl-ethyl)-amino]-4-(5-methyl-1H-pyrazol-3-ylamino)-2H-phtalazin-1-one]: the pIC50 is 7.04.

Staying with this assay, now noted: Homo sapiens, HCT-116, 120 h, HCT 116 human colon carcinoma cells, 5 days, CellTiter-Glo cell viability.
With `CSCCOc1ccc2c(Nc3cc(C)[nH]n3)nn(C(C)C)c(=O)c2c1` [Example A-1, 2-Isopropyl-4-(5-methyl-1H-pyrazol-3-ylamino)-7-(2-methylsulfanyl-ethoxy)-2H-phthalazin-1-one], the pIC50 was 6.67.
`COCCOc1ccc2c(Nc3cc(C)[nH]n3)nn(C(C)C)c(=O)c2c1` [Example A-2, 2-Isopropyl-7-(2-methoxy-ethoxy)-4-(5-methyl-1H-pyrazol-3-ylamino)-2H-phthalazin-1-one] showed a pIC50 of 6.30 to 7.30.
In turn, `Cc1cc(Nc2nn(C(C)C)c(=O)c3cc(OCCCS(=O)(=O)N(C)C)ccc23)n[nH]1` [Example A-3, 3-[3-Isopropyl-1-(5-methyl-1H-pyrazol-3-ylamino)-4-oxo-3,4-dihydro-phthalazin-6-yloxy]-propane-1-sulfonic acid dimethylamide] had a pIC50 of 6.30 to 7.30.
With `Cc1cc(Nc2nn(C(C)C)c(=O)c3cc(OCCCS(=O)(=O)N4CCOCC4)ccc23)n[nH]1` [Example A-4, 2-Isopropyl-4-(5-methyl-1H-pyrazol-3-ylamino)-7-[3-(morpholine-4-sulfonyl)-propoxy]-2H-phthalazin-1-one], the pIC50 was 6.10.
Take `Cc1cc(Nc2nn(C(C)C)c(=O)c3cc(OCCS(C)(=O)=O)ccc23)n[nH]1` [Example A-7, 2-Isopropyl-7-(2-methanesulfonyl-ethoxy)-4-(5-methyl-1H-pyrazol-3-ylamino)-2H-phthalazin-1-one]: the negative-log IC50 (pIC50) is 6.30 to 7.30.
Same read-out and setting: as for `COCCN(C)c1ccc2c(Nc3cc(C)[nH]n3)nn(C(C)C)c(=O)c2c1` [Example B-2, 2-Isopropyl-7-[(2-methoxy-ethyl)-methyl-amino]-4-(5-methyl-1H-pyrazol-3-ylamino)-2H-phthalazin-1-one], the figure is 6.30 to 7.30; as for `Cc1cc(Nc2nn(C(C)C)c(=O)c3cc(N(C)CCN(C)C)ccc23)n[nH]1` [Example B-3, 7-[(2-Dimethylamino-ethyl)-methyl-amino]-2-isopropyl-4-(5-methyl-1H-pyrazol-3-ylamino)-2H-phthalazin-1-one], 6.30 to 7.30.
On the same count and under the same terms, with `CSCCSc1ccc2c(Nc3cc(C)[nH]n3)nn(C(C)C)c(=O)c2c1` [Example C-1, 2-Isopropyl-4-(5-methyl-1H-pyrazol-3-ylamino)-7-(2-methylsulfanyl-ethylsulfanyl)-2H-phthalazin-1-one] the figure was 6.53; with `Cc1cc(Nc2nn(C(C)C)c(=O)c3cc(S(=O)(=O)CCS(C)(=O)=O)ccc23)n[nH]1` [Example C-2, 2-Isopropyl-7-(2-methanesulfonyl-ethanesulfonyl)-4-(5-methyl-1H-pyrazol-3-ylamino)-2H-phthalazin-1-one], 5.60 to 6.30; with `Cc1cc(Nc2nn(C(C)C)c(=O)c3cc(COCC4CC4)ccc23)n[nH]1` [Example E-1, 7-Cyclopropylmethoxymethyl-2-isopropyl-4-(5-methyl-1H-pyrazol-3-ylamino)-2H-phthalazin-1-one], 6.30 to 7.30.
Regarding `Cc1cc(Nc2nn(C(C)C)c(=O)c3cc(COCc4cccnc4)ccc23)n[nH]1` [Example E-2, 2-Isopropyl-4-(5-methyl-1H-pyrazol-3-ylamino)-7-(pyridin-3-ylmethoxymethyl)-2H-phthalazin-1-one], the pIC50 is 6.30 to 7.30.
Still for that read-out and setting: with `Cc1cc(Nc2nn(C(C)C)c(=O)c3cc(COCCN4CCOCC4)ccc23)[nH]n1` [Example E-3, 2-Isopropyl-4-(5-methyl-2H-pyrazol-3-ylamino)-7-(2-morpholin-4-yl-ethoxymethyl)-2H-phthalazin-1-one] the figure was 5.60 to 6.30; with `CSCc1ccc2c(Nc3cc(C)[nH]n3)nn(C(C)C)c(=O)c2c1` [Example F-1, 2-Isopropyl-4-(5-methyl-1H-pyrazol-3-ylamino)-7-methylsulfanylmethyl-2H-phthalazin-1-one], 6.30 to 7.30.
With `Cc1cc(Nc2nn(C(C)C)c(=O)c3cc(CS(C)(=O)=O)ccc23)n[nH]1` [Example F-2, 2-Isopropyl-7-methanesulfonylmethyl-4-(5-methyl-1H-pyrazol-3-ylamino)-2H-phthalazin-1-one], the pIC50 was 5.60 to 6.30.
The molecule `COCC(=O)N(C)c1ccc2c(Nc3cc(C)[nH]n3)nn(C(C)C)c(=O)c2c1` [Example G-1, N-[3-Isopropyl-1-(5-methyl-1H-pyrazol-3-ylamino)-4-oxo-3,4-dihydro-phthalazin-6-yl]-2-methoxy-N-methyl-acetamide] showed a negative-log IC50 (pIC50) of 6.30 to 7.30.
Same read-out and setting: with `COCC(=O)N(C)c1ccc2c(Nc3cc(C)[nH]n3)nn(Cc3cc(F)cc(F)c3)c(=O)c2c1` [Example G-2, N-[3-(3,5-Difluoro-benzyl)-1-(5-methyl-1H-pyrazol-3-ylamino)-4-oxo-3,4-dihydro-phthalazin-6-yl]-2-methoxy-N-methyl-acetamide] the figure was 5.60 to 6.30.

The target of another assay is T1, mutant Aurora A kinase (Homo sapiens, UniProt O14965).
T1 sequence (O14965 1-403): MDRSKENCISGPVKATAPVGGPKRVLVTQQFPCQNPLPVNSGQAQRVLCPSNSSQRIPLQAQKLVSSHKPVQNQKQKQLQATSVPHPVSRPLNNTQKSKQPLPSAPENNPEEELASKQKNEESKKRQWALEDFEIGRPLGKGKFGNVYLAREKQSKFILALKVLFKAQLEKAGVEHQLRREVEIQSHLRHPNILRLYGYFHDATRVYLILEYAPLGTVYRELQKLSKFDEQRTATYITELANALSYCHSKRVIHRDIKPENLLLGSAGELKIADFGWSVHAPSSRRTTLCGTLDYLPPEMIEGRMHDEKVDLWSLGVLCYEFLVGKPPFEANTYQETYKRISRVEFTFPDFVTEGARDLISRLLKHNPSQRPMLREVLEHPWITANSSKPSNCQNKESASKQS
Kind of assay: IC50 determination for inhibitors of Aurora A (ELISA, GST-Histone H3 substrate). In kind it is biochemical. Conditions: 30 μM ATP, 40 minutes, read-out: IC50 Aurora A kinase inhibition. The procedure: Aurora A is a serine threonine kinase involved in spindle assembly and chromosome segregation.
The assay is a typically ELISA-type assay where substrate (GST-Histone H3) is coupled to the assay-plate and is phosphorylated by the kinase. Phosphorylation is detected by a mouse anti-Phosphopeptid mAb and an HRP-labeled anti-mouse pAb. The assay is validated for IC50-determination.
Kinase activities were measured by Enzyme-Linked Immunosorbent Assay (ELISA): Maxisorp 384-well plates (Nunc) were coated with recombinant fusion protein comprising residues 1-15 of Histone H3 fused to the N-terminus of Glutathione-S-Transferase. Plates were then blocked with a solution of 1 mg/mL I-block (Tropix cat# T2015—highly purified form of casein) in phosphate-buffered saline. Kinase reactions were carried out in the wells of the ELISA plate by combining an appropriate amount of mutant Aurora A kinase with test compound and 30 μM ATP. The reaction buffer was 10× Kinase Buffer (Cell Signaling cat #9802) supplemented with 1 μg/mL I-block. Reactions were stopped after 40 minutes by addition of 25 mM EDTA. After washing, substrate phosphorylation was detected by addition of anti-phospho-Histone H3 (Ser 10) 6G3 mAb (Cell Signaling cat #9706) and sheep anti-mouse pAb-HRP (Amersham cat# NA931V), followed by calorimetric development with TMB (3,3′,5,5′-tetramethylbenzidine from Kirkegaard & Perry Laboratories). After readout of the absorbance, IC50 values were calculated using a non-linear curve fit (XLfit software (ID Business Solution Ltd., Guilford, Surrey, UK)).
On the technique in general: In an ELISA, binding on a coated surface is turned into a signal by an enzyme label.
As for `Cc1cc(Nc2nn(C(C)C)c(=O)c3cc(OCCCS(=O)(=O)N4CCOCC4)ccc23)n[nH]1` [Example A-4, 2-Isopropyl-4-(5-methyl-1H-pyrazol-3-ylamino)-7-[3-(morpholine-4-sulfonyl)-propoxy]-2H-phthalazin-1-one], the negative logarithm of the IC50 (pIC50) was 8.00.
`Cc1cc(Nc2nn(C(C)C)c(=O)c3cc(OCCN(C)C)ccc23)n[nH]1` [Example A-5, 7-(2-Dimethylamino-ethoxy)-2-isopropyl-4-(5-methyl-1H-pyrazol-3-ylamino)-2H-phthalazin-1-one]: the pIC50 is 7.66.
On the same count and under the same terms, with `Cc1cc(Nc2nn(C(C)C)c(=O)c3cc(S(=O)(=O)CCS(C)(=O)=O)ccc23)n[nH]1` [Example C-2, 2-Isopropyl-7-(2-methanesulfonyl-ethanesulfonyl)-4-(5-methyl-1H-pyrazol-3-ylamino)-2H-phthalazin-1-one] the figure was 8.00; with `Cc1cc(Nc2nn(C(C)C)c(=O)c3cc(COCCN4CCOCC4)ccc23)[nH]n1` [Example E-3, 2-Isopropyl-4-(5-methyl-2H-pyrazol-3-ylamino)-7-(2-morpholin-4-yl-ethoxymethyl)-2H-phthalazin-1-one], 7.80.
